What follows are compounds tested against T1, human RXFP1 (Homo sapiens, UniProt Q9HBX9) (assay: hRXFP1 HEK293 cAMP assay (HTRF)). Conditions: HEK293 cells stably expressing human RXFP1, 30 min at room temperature.
T1 construct: expressed in transfected cells
T1 sequence (Q9HBX9 1-757): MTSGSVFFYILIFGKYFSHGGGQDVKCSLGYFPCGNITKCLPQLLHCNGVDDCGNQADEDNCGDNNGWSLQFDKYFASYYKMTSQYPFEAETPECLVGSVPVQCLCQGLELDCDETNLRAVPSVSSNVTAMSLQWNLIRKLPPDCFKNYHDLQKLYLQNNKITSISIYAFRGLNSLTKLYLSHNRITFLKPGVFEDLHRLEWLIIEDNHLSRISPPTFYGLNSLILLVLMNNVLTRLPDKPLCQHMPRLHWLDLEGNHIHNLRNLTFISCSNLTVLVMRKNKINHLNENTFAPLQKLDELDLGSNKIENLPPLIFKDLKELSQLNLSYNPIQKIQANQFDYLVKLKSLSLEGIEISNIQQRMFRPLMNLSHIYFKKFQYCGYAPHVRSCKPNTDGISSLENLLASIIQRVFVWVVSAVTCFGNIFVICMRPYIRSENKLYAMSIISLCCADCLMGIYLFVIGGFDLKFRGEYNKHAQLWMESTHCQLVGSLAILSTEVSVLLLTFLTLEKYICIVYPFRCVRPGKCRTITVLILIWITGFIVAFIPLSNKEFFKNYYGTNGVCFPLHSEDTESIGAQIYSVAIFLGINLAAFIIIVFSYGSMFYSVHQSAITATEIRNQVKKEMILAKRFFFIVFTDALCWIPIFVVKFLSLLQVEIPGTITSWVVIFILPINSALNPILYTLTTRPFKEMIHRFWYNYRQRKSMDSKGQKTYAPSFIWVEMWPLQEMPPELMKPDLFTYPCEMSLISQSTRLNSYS
Type: cell-based
Method in brief: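 HEK293 cells stably expressing human RXFP1 (1500 cells/well) in HBSS/20 mM HEPES/0.05% BSA/0.5 mM IBMX. Compounds were tested at 0.010 nM–50 μM final (2% DMSO) for 30 min at room temperature. cAMP was measured by HTRF and values derived by 4-parameter logistic fit.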

Point of comparison: `COc1ccc(CN2O[C@H]3COC[C@H]3C2=O)cc1C(=O)N[C@H]1[C@@H](C(=O)Nc2ccc(F)c(C(F)(F)F)c2)[C@H]2CC[C@@H]1/C2=C\C1CC1` [Example 299, (1R,2S,3R,4R,7Z)-3-(5-{[(3aR,6aR)-3-oxo-hexahydrofuro[3,4-d][1,2]oxazol-2-yl]methyl}-2-methoxybenzamido)-7-(cyclopropylmethylidene)-N-[4-fluoro-3-(trifluoromethyl)phenyl]bicyclo[2.2.1]heptane-2-carboxamide], EC50 0.116 µM. Against it:
- COc1ccc(CCCC(F)(F)F)cc1C(=O)NC1C2CCC(/C2=C/C(F)(F)F)[C@@H]1C(=O)Nc1ccc(F)c(C(F)(F)F)c1 (some centres unmarked) [Example 185, (7Z)-N-[4-fluoro-3-(trifluoromethyl)phe-nyl]-3-[2-methoxy-5-(4,4,4-trifluorobutyl)benza-mido]-7-(2,2,2-trifluoroethylidene)bi-cyclo[2.2.1]heptane-2-carboxamide] — 5.2-fold higher, 0.603 µM
- COC/C=C/c1ccc(OC)c(C(=O)N[C@@H]2C3CCC(C3=C(C)C)[C@@H]2C(=O)Nc2ccc(F)c(C(F)(F)F)c2)c1 (stereo partly drawn) [Example 31, (2S,3R)—N-[4-fluoro-3-(trifluoromethyl)phenyl]-3-{2-methoxy-5-[(1E)-3-methoxyprop-1-en-1-yl]benzamido}-7-(propan-2-ylidene) bicyclo[2.2.1]heptane-2-carboxamide] — 1.6-fold higher, 0.18 µM
- COc1ccc(COC2CCOCC2)cc1C(=O)N[C@H]1[C@@H](C(=O)Nc2ccc(F)c(C(F)(F)F)c2)[C@H]2CC[C@@H]1/C2=C\C1CC1 [Example 288, (1R,2S,3R,4R,7Z)-7-(cyclopropyl-methylidene)-N-[4-fluoro-3-(trifluoromethyl)phenyl]-3-{2-methoxy-5-[(oxan-4-yloxy)methyl]benzamido} bicyclo[2.2.1] heptane-2-carboxamide] — 2-fold lower, 0.0587 µM
- COc1ccc(CCCn2cc(-c3ccccc3)nn2)cc1C(=O)N[C@@H]1C2CCC(/C2=C/C(F)(F)F)[C@@H]1C(=O)Nc1ccc(F)c(C(F)(F)F)c1 (some centres unmarked) [Example 123] — 11-fold higher, 1.27 µM
- COc1ccc(C(F)(F)F)cc1C(=O)N[C@@H]1C2CCC(C2=C(C)C)[C@@H]1C(=O)Nc1ccc(F)c(C(F)(F)F)c1 (some centres unmarked) [Example 359] — 13-fold higher, 1.5 µM
- COc1ccc(COC2(C(=O)O)CC2)cc1C(=O)N[C@@H]1C2CCC(/C2=C/C2CC2)[C@@H]1C(=O)Nc1ccc(F)c(C(F)(F)F)c1 (stereo partly drawn) [Example 18, 1-[(3-{[(2R,3S,7Z)-7-(cyclopropylmethyli-dene)-3-{[4-fluoro-3-(trifluoromethyl)phe-nyl]carbamoyl}bicy-clo[2.2.1]heptan-2-yl]carbamoyl}-4-methoxyphenyl)meth-oxy]cyclopropane-1-carboxylic acid] — within 1.5-fold, 0.124 µM
- COc1ccc(C2CC2C(=O)N2CCC(O)CC2)cc1C(=O)N[C@H]1[C@@H](C(=O)Nc2ccc(F)c(C(F)(F)F)c2)[C@H]2CC[C@@H]1/C2=C\C(F)(F)F (single isomer, unassigned) [Example 326] — 35-fold higher, 4.01 µM
- COc1ccc(CCC(C)(C)O)cc1C(=O)NC1C2CCC(/C2=C/CC2CCC2)[C@@H]1C(=O)Nc1ccc(F)c(C(F)(F)F)c1 (some centres unmarked) [Example 174, (7Z)-7-(2-cyclobutylethylidene)-N-[4-fluoro-3-(trifluoromethyl)phe-nyl]-3-[5-(3-hydroxy-3-methylbutyl)-2-methoxybenzamido] bicyclo[2.2.1]heptane-2-carboxamide] — 1.8-fold lower, 0.066 µM
- COc1ccc([C@H]2C[C@@H](O)C2)cc1C(=O)NC1C2CCC(/C2=C/C(F)(F)F)[C@@H]1C(=O)Nc1ccc(F)c(C(F)(F)F)c1 (stereo partly drawn) [Example 146, (2S,7Z)-N-[4-fluoro-3-(trifluoromethyl)phe-nyl]-3-{2-methoxy-5-[(1s,3s)-3-hydroxycyclobutyl]benz-amido}-7-(2,2,2-trifluoroethylidene)bi-cyclo[2.2.1]heptane-2-carboxamide] — 2-fold higher, 0.234 µM
- COc1ccc(C(=O)NCCCO)cc1C(=O)N[C@H]1[C@@H](C(=O)Nc2ccc(F)c(C(F)(F)F)c2)[C@H]2CC[C@@H]1/C2=C\C1CC1 [Example 229, N3-[(1R,2R,3S,4R,7Z)-7-(cyclopropyl-methylidene)-3-{[4-fluoro-3-(trifluoromethyl)phenyl]carbamoyl}bicyclo[2.2.1]heptan-2-yl]-N1-(3-hydroxypropyl)-4-methoxybenzene-1,3-dicarboxamide] — 1.6-fold higher, 0.183 µM
- COc1ccc(CCC2CCOCC2)cc1C(=O)NC1C2CCC(/C2=C/C(F)(F)F)[C@@H]1C(=O)Nc1ccc(F)c(C(F)(F)F)c1 (some centres unmarked) [Example 180, (7Z)-N-[4-fluoro-3-(trifluoromethyl)phe-nyl]-3-{2-methoxy-5-[2-(oxan-4-yl)ethyl]benzamido}-7-(2,2,2-trifluoroethylidene)bi-cyclo[2.2.1]heptane-2-carboxamide] — within 1.5-fold, 0.168 µM
- COc1ccc(C2CC3CC(O)CC32)cc1C(=O)N[C@H]1[C@@H](C(=O)Nc2ccc(F)c(C(F)(F)F)c2)[C@H]2CC[C@@H]1/C2=C\C1CC1 (single isomer, unassigned) [Example 341] — within 1.5-fold, 0.126 µM
- COc1ccc(/C(=C/CO)C(F)(F)F)cc1C(=O)N[C@H]1[C@@H](C(=O)Nc2ccc(F)c(C(F)(F)F)c2)[C@H]2CC[C@@H]1/C2=C\C1CC1 [Example 282, (1R,2S,3R,4R,Z)-7-(cyclopropylmethylene)-N-(4-fluoro-3-(trifluoromethyl)phenyl)-3-(2-methoxy-5-((Z)-1,1,1-trifluoro-4-hydroxybut-2-en-2-yl)benzamido) bicyclo[2.2.1]heptane-2-carboxamide] — 2.4-fold higher, 0.281 µM
- COc1ccc(CCCNC(=O)[C@H](C)O)cc1C(=O)N[C@@H]1C2CCC(/C2=C/C(F)(F)F)[C@@H]1C(=O)Nc1ccc(F)c(C(F)(F)F)c1 (some centres unmarked) [Example 114] — 3.9-fold higher, 0.457 µM
- COc1ccc(CCC(C)(C)O)cc1C(=O)NC1C2CCC(/C2=C/CC(C)(C)C)[C@@H]1C(=O)Nc1ccc(F)c(C(F)(F)F)c1 (some centres unmarked) [Example 163, (7Z)-7-(3,3-dimethylbutylidene)-N-[4-fluoro-3-(trifluoromethyl)phe-nyl]-3-[5-(3-hydroxy-3-methylbutyl)-2-methoxybenzamido] bicyclo[2.2.1]heptane-2-carboxamide] — 2.4-fold higher, 0.278 µM
- COc1ccc(C2CC3CC(CO)CC32)cc1C(=O)N[C@H]1[C@@H](C(=O)Nc2ccc(F)c(C(F)(F)F)c2)[C@H]2CC[C@@H]1/C2=C\C1CC1 (single isomer, unassigned) [Example 350] — 6.6-fold lower, 0.0177 µM
- COc1ccc(CC(C)CO)cc1C(=O)N[C@@H]1C2CCC(/C2=C/C(F)(F)F)[C@@H]1C(=O)Nc1ccc(F)c(C(F)(F)F)c1 (single isomer, unassigned) [Example 66] — within 1.5-fold, 0.142 µM
- COc1ccc(S(=O)(=O)N2CCO[C@@H](CO)C2)cc1C(=O)NC1C2CCC(/C2=C/C2CC2)[C@@H]1C(=O)Nc1ccc(F)c(C(F)(F)F)c1 (stereo partly drawn) [Example 201, (2S,3R,7Z)-7-(cyclopropylmethyli-dene)-N-[4-fluoro-3-(trifluoromethyl)phe-nyl]-3-(5-{[(2R)-2-(hydroxymethyl)mor-pholin-4-yl]sulfonyl}-2-methoxybenzamido) bicyclo[2.2.1]heptane-2-carboxamide] — 8.3-fold lower, 0.014 µM
- COc1ccc(C(=O)N2CCC(S(C)(=O)=O)C2)cc1C(=O)N[C@H]1[C@@H](C(=O)Nc2ccc(F)c(C(F)(F)F)c2)[C@H]2CC[C@@H]1/C2=C\C1CC1 (some centres unmarked) [Example 256] — 9.2-fold lower, 0.0126 µM
- COc1ccc(/C=C/C(=O)N2CC3(CC(O)C3)C2)cc1C(=O)N[C@H]1[C@@H](C(=O)Nc2ccc(F)c(C(F)(F)F)c2)[C@H]2CC[C@@H]1/C2=C\C1CC1 [Example 309, (1R,2S,3R,4R,7Z)-7-(cyclopropylmethylidene)-N-[4-fluoro-3-(trifluoromethyl)phenyl]-3-{5-[(1E)-3-{6-hydroxy-2-azaspiro[3.3]heptan-2-yl}-3-oxoprop-1-en-1-yl]-2-methoxybenzamido} bicyclo[2.2.1]heptane-2-carboxamide] — 6.8-fold lower, 0.0171 µM
- CCOC(=O)/C(C)=C/c1ccc(OC)c(C(=O)N[C@H]2[C@@H](C(=O)Nc3ccc(F)c(C(F)(F)F)c3)[C@H]3CC[C@@H]2/C3=C\C(F)(F)F)c1 [Example 318, ethyl (2E)-3-(3-{[(1R,2R,3S,4R,7Z)-3-{[4-fluoro-3-(trifluoromethyl)phenyl]carbamoyl}-7-(2,2,2-trifluoroethylidene)bicyclo[2.2.1]heptan-2-yl]carbamoyl}-4-methoxyphenyl)-2-methylprop-2-enoate] — 19-fold higher, 2.23 µM
- COc1ccc(C(=O)N2CC3(C2)CS(=O)(=O)C3)cc1C(=O)N[C@H]1[C@@H](C(=O)Nc2ccc(F)c(C(F)(F)F)c2)[C@H]2CC[C@@H]1/C2=C\C1CC1 [Example 243, (1R,2S,3R,4R,7Z)-7-(cyclopropyl-methylidene)-3-(5-{2,2-dioxo-2λ^6-thia-6-azaspiro[3.3]heptane-6-carbonyl}-2-methoxybenzamido)-N-[4-fluoro-3-(trifluoromethyl)phenyl]bicyclo[2.2.1] heptane-2-carboxamide] — 9.7-fold lower, 0.0119 µM

— patent US20250268903A1, “RXFP1 AGONISTS” (BRISTOL-MYERS SQUIBB COMPANY, priority 2021, published 2025)
